# In ChEMBL document CHEMBL1126351, “()-7-deazacarbovir as a compound with potential anti-hiv and anti-hcmv properties” (Bioorg Med Chem Lett, 1992):
# System: HFF
# Test: Compound was evaluated for CPE inhibition using anti-HCMV assay in AD169 strain infected HFF cells
# Type: functional, cell-based
# Settings: Homo sapiens
smiles,measurement,value
Nc1nc(O)c2ccn(C3C=CC(CO)C3)c2n1 (configuration not stated),EC50,350 µM
same,IC50,> 410 µM
